One series has as its target T1, σ1-receptor (Cavia porcellus, UniProt Q60492).
T1 construct: guinea pig brains were homogenized in 10 vols; (w/v) of Tris-HCl 50 mM 0.32 M sucrose; from tissue; host or cells: guinea pig brain membranes
The series is described as follows: Sigma-1 receptor radioligand binding, [3H](+)pentazocine (Version A / Version B). Further details: species or system guinea pig. The note with it: for % Binding σ1 10^−6 M: compound 10^−6 M; for % Binding σ1 10^−6 M / inhibition at 0.1 µM / inhibition at 0.01 µM: guinea pig brain membranes; for Ki: value in parentheses below the % binding, guinea pig brain; for inhibition at 0.1 µM: compound 10^−7 M; for inhibition at 0.01 µM: compound 10^−8 M. The procedure:
Brain membrane preparation and binding assays for the σ1-receptor were performed as described (DeHaven-Hudkins et al., 1992) with some modifications. In brief, guinea pig brains were homogenized in 10 vols. (w/v) of Tris-HCl 50 mM 0.32 M sucrose, pH 7.4, with a Kinematica Polytron PT 3000 at 15000 r.p.m. for 30 s. The homogenate was centrifuged at 1000 g for 10 min at 4° C. and the supernatants collected and centrifuged again at 48000 g for 15 min at 4° C. The pellet was resuspended in 10 volumes of Tris-HCl buffer (50 mM, pH 7.4), incubated at 37° C. for 30 min, and centrifuged at 48000 g for 20 min at 4° C. Following this, the pellet was resuspended in fresh Tris-HCl buffer (50 mM, pH 7.4) and stored on ice until use.
Each assay tube contained 10 μL of [^3H](+)pentazocine (final concentration of 0.5 nM), 900 μL of the tissue suspension to a final assay volume of 1 mL and a final tissue concentration of approximately 30 mg tissue net weight/mL. Non-specific binding was defined by addition of a final concentration of 1 μM haloperidol. All tubes were incubated at 37° C. for 150 min before termination of the reaction by rapid filtration over Schleicher & Schuell GF 3362 glass fibre filters [previously soaked in a solution of 0.5% polyethylenimine for at least 1 h]. Filters were then washed with four times with 4 mL of cold Tris-HCl buffer (50 mM, pH 7.4). Following addition of scintillation cocktail, the samples were allowed to equilibrate overnight. The amount of bound radioactivity was determined by liquid scintillation spectrometry using a Wallac Winspectral 1414 liquid scintillation counter. Protein concentrations were determined by the method of Lowry et al. (1951).
In brief the σ1-receptor preparation was prepared from guinea pig brain. The brains were homogenized in 5 to 6 times of volume sucrose solution (0.32M) and homogenized. The homogenate was centrifuged at 2900 rpm, 4° C., 10 min). the supernatant was centrifuged again (23500×g, 4° C., 20 min). The pellet was resuspended in Tris-buffer, incubated for 30 min at room temperature and centrifuged f (23500×g, 4° C., 20 min). The pellet was resuspended in cold TRIS-buffer and homogenized. Then the protein content was measured (approx. 1.5 mg/mL) and the homogenate frozen at −80° C. for later use.
The radioligand used was [^3H]-(+)-Pentazocin in TRIS-buffer. In a volume of 200 μL 50 μL TRIS-buffer, 50 μL compound solution of varying concentration, 50 μL radioligand-solution (8 nM; resulting in 2 nM in the assay) and finally 50 μL of receptor preparation (approx. 1.5 mg/mL) were given into a well of a microplate equipped with a filter. The plate was closed and stirred for 2.5 h at 37° C. and 500 rpm. Following that the solvents were removed by a harvester through the filter. After rinsing with H2O the filter was measured in a scintillation counter ([^3H]-protocol).

A further series concerns σ2-receptor. Put plainly: Sigma-2 receptor radioligand binding, [3H]-DTG (Version A / Version B). Further details: species or system mice (Version A, σ1 knockout brain) / rat (Version B, liver). The following applies: compound 10^−6 M. As to the method: Binding studies for σ2-receptor were performed as described (Radesca et al., 1991) with some modifications. In brief, brains from sigma receptor type I (σ1) knockout mice were homogenized in a volume of 10 mL/g tissue net weight of ice-cold 10 mM Tris-HCl, pH 7.4, containing 320 mM sucrose (Tris-sucrose buffer) with a Potter-Elvehjem homogenizer (10 strokes at 500 r.p.m.) The homogenates were then centrifuged at 1000 g for 10 min at 4° C., and the supernatants were saved. The pellets were resuspended by vortexing in 2 mL/g ice-cold Tris-sucrose buffer and centrifuged again at 1000 g for 10 min. The combined 1000 g supernatants were centrifuged at 31000 g for 15 min at 4° C. The pellets were resuspended by vortexing in 3 mL/g 10 mM Tris-HCl, pH 7.4, and the suspension was kept at 25° C. for 15 min. Following centrifugation at 31000 g for 15 min, the pellets were resuspended by gentle Potter Elvehjem homogenization to a volume of 1.53 mL/g in 10 mM Tris-HCl pH 7.4.
The assay tubes contained 10 μL of [^3H]-DTG (final concentration of 3 nM), 400 μL of the tissue suspension (5.3 mL/g in 50 mM Tris-HCl, pH 8.0) to a final assay volume of 0.5 mL. Non-specific binding was defined by addition of a final concentration of 1 μM haloperidol. All tubes were incubated at 25° C. for 120 min before termination of the reaction by rapid filtration over Schleicher & Schuell GF 3362 glass fibre filters [previously soaked in a solution of 0.5% polyethylenimine for at least 1 h]. Filters were washed with three times with 5 mL volumes of cold Tris-HCl buffer (10 mM, pH 8.0). Following addition of scintillation cocktail samples were allowed to equilibrate overnight. The amount of bound radioactivity was determined by liquid scintillation spectrometry using a Wallac Winspectral 1414 liquid scintillation counter. Protein concentrations were determined by the method of Lowry et al. (1951).
In brief the σ2-Receptor preparation was prepared from rat liver. The livers were homogenized in 5 to 6 times of volume sucrose solution (0.32M) and homogenized. The homogenate was centrifuged at 2900 rpm, 4° C., 10 min). the supernatant was centrifuged again (31000×g, 4° C., 20 min). The pellet was resuspended in TRIS-buffer, incubated for 30 min at room temperature while stirring and centrifuged f (31000×g, 4° C., 20 min). The pellet was resuspended in cold TRIS-buffer pH 8 and homogenized. Then the protein content was measured (approx. 2 mg/mL) and the homogenate frozen at −80° C. for later use.
The radioligand used was [^3H]-Ditolylguanidin in TRIS-buffer pH 8. The σ1-receptor binding sites were masked through (+)-Pentazocin-solution in TRIS-Puffer pH 8.
In a volume of 200 μL 50 μL compound solution of varying concentration, 50 μL (+Pentazocin-solution (2 μM; resulting in 500 nM in the assay), 50 μL radioligand-solution (12 nM; resulting in 3 nM in the assay) and finally 50 μL of receptor preparation (approx. 2 mg/mL) were given into a well of a microplate equipped with a filter. The plate was closed and stirred for 2 h at room temperature and 500 rpm. Following that the solvents were removed by a harvester through the filter. After rinsing with H2O the filter was measured in a scintillation counter ([^3H]-protocol).

By melting point is commonly meant the temperature of the solid-liquid transition. By Ki is commonly meant the dissociation constant of the complex between target and ligand, obtained from inhibition or displacement. One may read the inhibition as the drop in the measured response relative to a control, in per cent.

T1 sequence (Q60492 whole entry): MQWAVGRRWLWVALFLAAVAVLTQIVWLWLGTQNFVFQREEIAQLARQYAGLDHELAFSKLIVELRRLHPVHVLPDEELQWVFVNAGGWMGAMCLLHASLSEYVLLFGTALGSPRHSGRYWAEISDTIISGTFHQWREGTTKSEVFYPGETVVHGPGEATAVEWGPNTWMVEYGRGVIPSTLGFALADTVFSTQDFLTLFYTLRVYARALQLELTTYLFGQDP

Consider `COC1Cc2ccccc2C2(CCCNC2)O1` (centres unmarked), for which the melting point was 54 to 58 °C.

On to `COC1OC2(CC[N+]3(CCCC3)CC2)c2ccccc21.[Br-]` (centres unmarked), for which the melting point came out at 124 °C. On to `COC1Cc2ccccc2C2(CCN(Cc3ccccc3)C2)O1` (mixture of isomers) [Example 18, cis/trans-1′-Benzyl-3-methoxy-3,4-dihydrospiro[[2]benzopyran-1,3′-pyrrolidin]], for which, at σ1-receptor, the “% Binding σ1 10^−6 M” value is listed as 96.2% and the Ki was 70 nM. With `COC1Cc2ccccc2C2(CCN(CCc3ccccc3)C2)O1` (mixture of isomers) [Example 20, cis/trans-3-Methoxy-1′-(2-phenylethyl)-3,4-dihydrospiro[[2]benzopyran-1,3′-pyrrolidin]], on σ1-receptor, the inhibition at 0.1 µM came out at 89.5% and the inhibition at 0.01 µM was 32%. Turning to `COC1Cc2ccccc2C2(CCN(CCCCc3ccccc3)C2)O1` (mixture of isomers) [Example 21, cis/trans-3-Methoxy-1′-(4-phenylbutyl)-3,4-dihydrospiro[[2]benzopyran-1,3′-pyrrolidin]], on σ1-receptor, the inhibition at 0.1 µM stood at 67% and the inhibition at 0.01 µM was found to be 32%. The corresponding values for `CCCCCCCCN1CCC2(C1)OC(OC)Cc1ccccc12` (mixture of isomers) [Example 23, cis/trans-3-Methoxy-1′-octyl-3,4-dihydrospiro[[2]benzopyran-1,3′-pyrrolidin]] are 70.4% and 0.8%.

On σ1-receptor, `COC1OC2(CCN(CCc3ccccc3)C2)c2ccccc21` (mixture of isomers) [Example 27, cis/trans-3-Methoxy-1′-(2-Phenylethyl)-3H-spiro[[2]benzofuran-1,3′-pyrrolidin]] had an inhibition at 0.1 µM of 92.2% and an inhibition at 0.01 µM of 40.4%. For `COC1OC2(CCN(CCCCc3ccccc3)C2)c2ccccc21` (mixture of isomers) [Example 28, cis/trans-3-Methoxy-1′-(4-Phenylbutyl)-3H-spiro[[2]benzofuran-1,3′-pyrrolidin]], in that order: 80.4% and 27.4%. On σ1-receptor, `CCCCN1CCC2(C1)OC(OC)c1ccccc12` (mixture of isomers) [Example 29, cis/trans-1′-Butyl-3-methoxy-3H-spiro[[2]benzofuran-1,3′-pyrrolidin]] yielded an inhibition at 0.1 µM of 68.9% and an inhibition at 0.01 µM of 45.6%. For `CCCCCCCCN1CCC2(C1)OC(OC)c1ccccc12` (mixture of isomers) [Example 30, cis/trans-3-Methoxy-1′-octyl-3H-spiro[[2]benzofuran-1,3′-pyrrolidin]], in that order: 91.5% and 41.8%. With `CCCCN1CCC[C@]2(C1)O[C@H](OC)Cc1ccccc12` (racemic) [Example 11, trans-1′-Butyl-3-methoxy-3,4-dihydrospiro[[2]benzopyran-1,3′-piperidin]], the “% Binding σ2 10^−6 M” value in the series on σ2-receptor was found to be 18.8%. On σ1-receptor, the “% Binding σ1 10^−6 M” value was 49^ %. The corresponding values for `CO[C@@H]1Cc2ccccc2[C@]2(CCCN(Cc3ccccc3)C2)O1` (relative stereo) [Example 2, trans-1′-Benzyl-3-methoxy-3,4-dihydrospiro[[2]benzopyran-1,3′-piperidin]] are 27.8% and 12.9%. For `CO[C@@H]1Cc2ccccc2[C@@]2(CCCN(CCCc3ccccc3)C2)O1` (relative stereo) [Example 6, cis-3-Methoxy-1′-(3-phenylpropyl)-3,4-dihydrospiro[[2]benzopyran-1,3′-piperidin]], in the series on σ2-receptor, the “% Binding σ2 10^−6 M” value stood at 32.2%. The “% Binding σ1 10^−6 M” value on σ1-receptor is 38.8%.

With `CO[C@@H]1Cc2ccccc2[C@]2(CCCN(CCCc3ccccc3)C2)O1` (relative stereo) [Example 7, trans-3-Methoxy-1′-(3-phenylpropyl)-3,4 dihydrospiro[[2]benzopyran-1,3′-piperidin]], the “% Binding σ2 10^−6 M” value in the series on σ2-receptor is given as 54.3%. Also, on σ1-receptor, the “% Binding σ1 10^−6 M” value was 14^ %. Turning to `CCCCN1CCC[C@@]2(C1)O[C@H](OC)Cc1ccccc12` (relative stereo) [Example 10, cis-1′-Butyl-3-methoxy-3,4-dihydrospiro[[2]benzopyran-1,3′-piperidin]], the “% Binding σ2 10^−6 M” value in the series on σ2-receptor stood at 7.6%. Besides, at σ1-receptor, the “% Binding σ1 10^−6 M” value was 56^ %. For `CCCCCCCCN1CCC[C@]2(C1)O[C@H](OC)Cc1ccccc12` (relative stereo) [Example 15, trans-3-Methoxy-1′-octyl-3,4-dihydrospiro[[2]benzopyran-1,3′-piperidin]], in that order: 56.3% and 27.6%. Take `CO[C@@H]1Cc2ccccc2[C@@]2(CCCN(Cc3ccccc3)C2)O1` [Example 1, cis-1′-Benzyl-3-methoxy-3,4-dihydrospiro[[2]benzopyran-1,3′-piperidin]]: on σ1-receptor, the inhibition at 0.1 µM amounted to 34%. As to `CCCCCCCCN1CCC[C@@]2(C1)O[C@H](OC)Cc1ccccc12` [Example 14, cis-3-Methoxy-1′-octyl-3,4-dihydrospiro[[2]bonzopyran-1,3′-piperidin]], the “% Binding σ2 10^−6 M” value in the series with σ2-receptor amounted to 45.4%. Besides, at σ1-receptor, the “% Binding σ1 10^−6 M” value amounted to 46.3%. With `CCCCN1CCC2(CC1)OC(OC)Cc1ccccc12` (centres unmarked) [Example 36], in the series on σ2-receptor, the “% Binding σ2 10^−6 M” value stood at 39.7%. For the same molecule, on σ1-receptor, the “% Binding σ1 10^−6 M” value was found to be 100.8% and the Ki is 2.3 nM. Turning to `CCCCCCCCN1CCC2(CC1)OC(OC)Cc1ccccc12` (centres unmarked) [Example 37], the “% Binding σ2 10^−6 M” value in the series on σ2-receptor is recorded as 72.6%. Also, the “% Binding σ1 10^−6 M” value on σ1-receptor is 103.9%.

These data come from patent US20090209568A1, “Spiro [Benzopyran] or Spiro [Benzofuran] Derivatives Which Inhibit the Sigma Receptor” (priority 2006, published 2009).
